Common to all, as to type: physicochemical
Data set [1] in a line: NGI data of the NGI v. Spraytec comparison. Conditions: Table 5F.
Data set [2] is described as follows: Particle size distribution by Spraytec using low resistance device. Conditions: 90 L/min, 2.7 second actuation, 5 tests. How it is done: Particle size distribution of ASA/MgST dry powder composition with 0.5%, 1%, 5%, and 10% w/w MgST, spray-dried Aspirin 85%/Leucine 15% Formulation (036 or 36)>Aspirin 95%/Leucine 5% Formulation (046 or 46), and micronized ASA were measured by Spraytec using low resistance device, at 90 L/min flow rate with 2.7 second actuation time with a step of device/mouthpiece/USP/throat/IC/DUSA, and 5 tests for each composition (Table 5E).

A short description of data set [3]: Colloid-probe atomic force microscopy, force of cohesion. Conditions: five drug probes per formulation against smooth crystalline aspirin surface. An excerpt: Colloid-probe atomic force microscopy studies (AFM) was used to measure the cohesive surface interfacial forces (FIG. 6). Five individual particles from each of powder formulation was attached to tipless cantilevers. These were designated as drug probes, which were then interacted with a smooth surface of crystalline aspirin. In this way, it was possible to measure the force of cohesion of the particles of the different formulations (FIG. 6), which followed the following rank order: […]

Where “and” joins values, the source holds several entries; their conditions need not be identical. Equal values may be shown once.

Consider `CC(=O)Oc1ccccc1C(=O)O` [Micronized ASA, acetylsalicylic acid], for which, in data set [1], the “NGI FPF” value was found to be 20.71% and the “NGI MMAD” value was 4.86 μm. Also, in data set [2], the “% V < 5 μm” value was 54.7 (3.15) %; the “% V < 10 μm” value is reported as 88.99 (2.05) %; the “Dv(10)” value is 1.9 (0.08) μm; the “Dv(50)” value is 4.63 (0.24) μm and 4.62 (0.24) μm. Further, the “Dv(90)” value in data set [2] was 10.32 (0.65) μm. Besides, the “force of cohesion, rank order” value in data set [3] was “>ASA co-micronised with 0.5% magnesium stearate”.

For the origin of these results see patent publication US10195147B1, “Dry powder compositions with magnesium stearate” (OTITOPIC INC., priority 2017, dated 2019).
